{"source": "patent US10463670B2", "about": "“Use of non-peptide NK1 antagonists in a predetermined dose for the treatment of cancer” (SERVICIO ANDALUZ DE SALUD, priority 2013, dated 2019)", "key": {"[1]": {"test_system": "human lung cancer, reference HCC-44", "experiment": "Lung cancer HCC-44 tumours implanted s.c. in nude mice, Aprepitant alone", "assay_type": "in vivo", "protocol": "(§1) Immunocompromised female mice, 5-6 weeks of age were used, nu/nu Balb/c nude mice, provided by Harlan Iberica Barcelona (Spain). They were kept at 24° C. and in sterile conditions with food and water “ad libitum”. They were injected with 2×10^7 tumour cells, corresponding to cancer (human lung cancer, reference HCC-44 supplied by DSMZ) in 200 μl of PBS subcutaneous route. The tumour size was measured and the mice were evaluated for their state of health and weight daily. The mice were randomized in nine groups when the tumours reached a volume of 75 mm^3. One of the groups was treated with 200 μl of placebo (control group) and the eight remaining groups with doses of 10 (group 1), 20 (group 2), 30 (group 3), 40 (group 4), 50 (group 5), 60 (group 6), 70 (group 7) and 80 (group 8) mg per kilogram of weight and day of the NK1 receptor antagonist Aprepitant. 3 animals were treated per group, during 28 days. All the mice were sacrificed at the end of the experiment."}, "[2]": {"test_system": "human fibrosarcoma; reference HT-1080", "experiment": "Fibrosarcoma HT-1080 tumours implanted s.c. in nude mice, Aprepitant alone", "assay_type": "in vivo", "protocol": "as §1\nImmunocompromised female mice, 5-6 weeks of age were used, in the same conditions as explained in example 1. They were injected with 2×10^7 tumour cells, corresponding to a mesenchymal cell line tumour (human fibrosarcoma; reference HT-1080; supplied by DSMZ) in 200 μl of PBS by subcutaneous route. The tumour size was measured and the mice were evaluated for their state of health and weight daily. The mice were randomized in nine groups when the tumours reached a volume of 75 mm^3. One of the groups was treated with 200 μl of placebo (control group) and the eight remaining groups with doses of 10 (group 1), 20 (group 2), 30 (group 3), 40 (group 4), 50 (group 5), 60 (group 6), 70 (group 7) and 80 (group 8) mg per kilogram of weight and day of the NK1 receptor antagonist Aprepitant. 3 animals were treated per group, during 28 days. All the mice were sacrificed at the end of the experiment."}, "brain tumours": {"test_system": "brain tumours", "conditions": "Aprepitant 3 mg per kilogram of weight and day; mice; Lewis et al. 2013; cited from earlier work"}, "[3]": {"conditions": "Aprepitant 10 mg/kg/day, 7 days"}, "[4]": {"conditions": "Aprepitant 10 mg/kg/day, 14 days"}, "[5]": {"conditions": "Aprepitant 10 mg/kg/day, 21 days"}, "[6]": {"conditions": "Aprepitant 10 mg/kg/day, 28 days"}, "[7]": {"conditions": "Aprepitant 20 mg/kg/day, 7 days"}, "[8]": {"conditions": "Aprepitant 20 mg/kg/day, 14 days"}, "[9]": {"conditions": "Aprepitant 20 mg/kg/day, 21 days"}, "[10]": {"conditions": "Aprepitant 20 mg/kg/day, 28 days"}, "[11]": {"conditions": "Aprepitant 30 mg/kg/day, 7 days"}, "[12]": {"conditions": "Aprepitant 30 mg/kg/day, 14 days"}, "[13]": {"conditions": "Aprepitant 30 mg/kg/day, 21 days"}, "[14]": {"conditions": "Aprepitant 30 mg/kg/day, 28 days"}, "[15]": {"conditions": "Aprepitant 40 mg/kg/day, 7 days"}, "[16]": {"conditions": "Aprepitant 40 mg/kg/day, 14 days"}, "[17]": {"conditions": "Aprepitant 40 mg/kg/day, 21 days"}, "[18]": {"conditions": "Aprepitant 40 mg/kg/day, 28 days"}, "[19]": {"conditions": "Aprepitant 50 mg/kg/day, 7 days"}, "[20]": {"conditions": "Aprepitant 50 mg/kg/day, 14 days"}, "[21]": {"conditions": "Aprepitant 50 mg/kg/day, 21 days"}, "[22]": {"conditions": "Aprepitant 50 mg/kg/day, 28 days"}, "[23]": {"conditions": "Aprepitant 60 mg/kg/day, 7 days"}, "[24]": {"conditions": "Aprepitant 60 mg/kg/day, 14 days"}, "[25]": {"conditions": "Aprepitant 60 mg/kg/day, 21 days"}, "[26]": {"conditions": "Aprepitant 60 mg/kg/day, 28 days"}, "[27]": {"conditions": "Aprepitant 70 mg/kg/day, 7 days"}, "[28]": {"conditions": "Aprepitant 70 mg/kg/day, 14 days"}, "[29]": {"conditions": "Aprepitant 70 mg/kg/day, 21 days"}, "[30]": {"conditions": "Aprepitant 70 mg/kg/day, 28 days"}, "[31]": {"conditions": "Aprepitant 80 mg/kg/day, 7 days"}, "[32]": {"conditions": "Aprepitant 80 mg/kg/day, 14 days"}, "[33]": {"conditions": "Aprepitant 80 mg/kg/day, 21 days"}, "[34]": {"conditions": "Aprepitant 80 mg/kg/day, 28 days"}}, "note": "“Also recorded” adds a separate entry of the source."}
{"smiles": "C[C@@H](O[C@H]1OCCN(Cc2n[nH]c(=O)[nH]2)[C@H]1c1ccc(F)cc1)c1cc(C(F)(F)F)cc(C(F)(F)F)c1", "note": "[Aprepitant]", "values": [{"measurement": "Tumour size (mean volume of the tumour)", "setting": "[1]; [3]", "value": "210 ± 2", "unit": "cubic millimeters"}, {"measurement": "Tumour size (mean volume of the tumour)", "setting": "[1]; [4]", "value": "190 ± 4", "unit": "cubic millimeters"}, {"measurement": "Tumour size (mean volume of the tumour)", "setting": "[1]; [5]", "value": "165 ± 6", "unit": "cubic millimeters"}, {"measurement": "Tumour size (mean volume of the tumour)", "setting": "[1]; [6]", "value": "135 ± 3", "unit": "cubic millimeters"}, {"measurement": "Tumour size (mean volume of the tumour)", "setting": "[1]; [7]", "value": "205 ± 8", "unit": "cubic millimeters"}, {"measurement": "Tumour size (mean volume of the tumour)", "setting": "[1]; [8]", "value": "170 ± 3", "unit": "cubic millimeters"}, {"measurement": "Tumour size (mean volume of the tumour)", "setting": "[1]; [9]", "value": "145 ± 4", "unit": "cubic millimeters"}, {"measurement": "Tumour size (mean volume of the tumour)", "setting": "[1]; [10]", "value": "110 ± 4", "unit": "cubic millimeters"}, {"measurement": "Tumour size (mean volume of the tumour)", "setting": "[1]; [11]", "value": "185 ± 4", "unit": "cubic millimeters"}, {"measurement": "Tumour size (mean volume of the tumour)", "setting": "[1]; [12]", "value": "150 ± 6", "unit": "cubic millimeters"}, {"measurement": "Tumour size (mean volume of the tumour)", "setting": "[1]; [13]", "value": "135 ± 5", "unit": "cubic millimeters"}, {"measurement": "Tumour size (mean volume of the tumour)", "setting": "[1]; [14]", "value": "105 ± 2", "unit": "cubic millimeters"}, {"measurement": "Tumour size (mean volume of the tumour)", "setting": "[1]; [15]", "value": "155 ± 5", "unit": "cubic millimeters"}, {"measurement": "Tumour size (mean volume of the tumour)", "setting": "[1]; [16]", "value": "130 ± 4", "unit": "cubic millimeters"}, {"measurement": "Tumour size (mean volume of the tumour)", "setting": "[1]; [17]", "value": "120 ± 4", "unit": "cubic millimeters"}, {"measurement": "Tumour size (mean volume of the tumour)", "setting": "[1]; [18]", "value": "95 ± 4", "unit": "cubic millimeters"}, {"measurement": "Tumour size (mean volume of the tumour)", "setting": "[1]; [19]", "value": "130 ± 4", "unit": "cubic millimeters"}, {"measurement": "Tumour size (mean volume of the tumour)", "setting": "[1]; [20]", "value": "115 ± 7", "unit": "cubic millimeters"}, {"measurement": "Tumour size (mean volume of the tumour)", "setting": "[1]; [21]", "value": "105 ± 6", "unit": "cubic millimeters"}, {"measurement": "Tumour size (mean volume of the tumour)", "setting": "[1]; [22]", "value": "85 ± 6", "unit": "cubic millimeters"}, {"measurement": "Tumour size (mean volume of the tumour)", "setting": "[1]; [23]", "value": "110 ± 3", "unit": "cubic millimeters"}, {"measurement": "Tumour size (mean volume of the tumour)", "setting": "[1]; [24]", "value": "95 ± 8", "unit": "cubic millimeters"}, {"measurement": "Tumour size (mean volume of the tumour)", "setting": "[1]; [25]", "value": "80 ± 7", "unit": "cubic millimeters"}, {"measurement": "Tumour size (mean volume of the tumour)", "setting": "[1]; [26]", "value": "65 ± 4", "unit": "cubic millimeters"}, {"measurement": "Tumour size (mean volume of the tumour)", "setting": "[1]; [27]", "value": "95 ± 4", "unit": "cubic millimeters"}, {"measurement": "Tumour size (mean volume of the tumour)", "setting": "[1]; [28]", "value": "80 ± 6", "unit": "cubic millimeters"}, {"measurement": "Tumour size (mean volume of the tumour)", "setting": "[1]; [29]", "value": "65 ± 8", "unit": "cubic millimeters"}, {"measurement": "Tumour size (mean volume of the tumour)", "setting": "[1]; [30]", "value": "40 ± 7", "unit": "cubic millimeters"}, {"measurement": "Tumour size (mean volume of the tumour)", "setting": "[1]; [31]", "value": "70 ± 4", "unit": "cubic millimeters"}, {"measurement": "Tumour size (mean volume of the tumour)", "setting": "[1]; [32]", "value": "55 ± 7", "unit": "cubic millimeters"}, {"measurement": "Tumour size (mean volume of the tumour)", "setting": "[1]; [33]", "value": "40 ± 6", "unit": "cubic millimeters"}, {"measurement": "Tumour size (mean volume of the tumour)", "setting": "[1]; [34]", "value": "25 ± 5", "unit": "cubic millimeters"}, {"measurement": "Tumour size (mean volume of the tumour)", "setting": "[2]; [3]", "value": "220 ± 4", "unit": "cubic millimeters"}, {"measurement": "Tumour size (mean volume of the tumour)", "setting": "[2]; [4]", "value": "205 ± 4", "unit": "cubic millimeters"}, {"measurement": "Tumour size (mean volume of the tumour)", "setting": "[2]; [5]", "value": "195 ± 6", "unit": "cubic millimeters"}, {"measurement": "Tumour size (mean volume of the tumour)", "setting": "[2]; [6]", "value": "170 ± 6", "unit": "cubic millimeters"}, {"measurement": "Tumour size (mean volume of the tumour)", "setting": "[2]; [7]", "value": "195 ± 5", "unit": "cubic millimeters"}, {"measurement": "Tumour size (mean volume of the tumour)", "setting": "[2]; [8]", "value": "180 ± 5", "unit": "cubic millimeters"}, {"measurement": "Tumour size (mean volume of the tumour)", "setting": "[2]; [9]", "value": "165 ± 7", "unit": "cubic millimeters"}, {"measurement": "Tumour size (mean volume of the tumour)", "setting": "[2]; [10]", "value": "150 ± 7", "unit": "cubic millimeters"}, {"measurement": "Tumour size (mean volume of the tumour)", "setting": "[2]; [11]", "value": "175 ± 5", "unit": "cubic millimeters"}, {"measurement": "Tumour size (mean volume of the tumour)", "setting": "[2]; [12]", "value": "155 ± 6", "unit": "cubic millimeters"}, {"measurement": "Tumour size (mean volume of the tumour)", "setting": "[2]; [13]", "value": "135 ± 5", "unit": "cubic millimeters"}, {"measurement": "Tumour size (mean volume of the tumour)", "setting": "[2]; [14]", "value": "140 ± 4", "unit": "cubic millimeters"}, {"measurement": "Tumour size (mean volume of the tumour)", "setting": "[2]; [15]", "value": "160 ± 4", "unit": "cubic millimeters"}, {"measurement": "Tumour size (mean volume of the tumour)", "setting": "[2]; [16]", "value": "150 ± 3", "unit": "cubic millimeters"}, {"measurement": "Tumour size (mean volume of the tumour)", "setting": "[2]; [17]", "value": "120 ± 5", "unit": "cubic millimeters"}, {"measurement": "Tumour size (mean volume of the tumour)", "setting": "[2]; [18]", "value": "110 ± 6", "unit": "cubic millimeters"}, {"measurement": "Tumour size (mean volume of the tumour)", "setting": "[2]; [19]", "value": "145 ± 5", "unit": "cubic millimeters"}, {"measurement": "Tumour size (mean volume of the tumour)", "setting": "[2]; [20]", "value": "135 ± 7", "unit": "cubic millimeters"}, {"measurement": "Tumour size (mean volume of the tumour)", "setting": "[2]; [21]", "value": "100 ± 3", "unit": "cubic millimeters"}, {"measurement": "Tumour size (mean volume of the tumour)", "setting": "[2]; [22]", "value": "100 ± 7", "unit": "cubic millimeters"}, {"measurement": "Tumour size (mean volume of the tumour)", "setting": "[2]; [23]", "value": "135 ± 7", "unit": "cubic millimeters"}, {"measurement": "Tumour size (mean volume of the tumour)", "setting": "[2]; [24]", "value": "120 ± 6", "unit": "cubic millimeters"}, {"measurement": "Tumour size (mean volume of the tumour)", "setting": "[2]; [25]", "value": "90 ± 8", "unit": "cubic millimeters"}, {"measurement": "Tumour size (mean volume of the tumour)", "setting": "[2]; [26]", "value": "85 ± 4", "unit": "cubic millimeters"}, {"measurement": "Tumour size (mean volume of the tumour)", "setting": "[2]; [27]", "value": "120 ± 8", "unit": "cubic millimeters"}, {"measurement": "Tumour size (mean volume of the tumour)", "setting": "[2]; [28]", "value": "100 ± 4", "unit": "cubic millimeters"}, {"measurement": "Tumour size (mean volume of the tumour)", "setting": "[2]; [29]", "value": "85 ± 6", "unit": "cubic millimeters"}, {"measurement": "Tumour size (mean volume of the tumour)", "setting": "[2]; [30]", "value": "80 ± 7", "unit": "cubic millimeters"}, {"measurement": "Tumour size (mean volume of the tumour)", "setting": "[2]; [31]", "value": "100 ± 4", "unit": "cubic millimeters"}, {"measurement": "Tumour size (mean volume of the tumour)", "setting": "[2]; [32]", "value": "90 ± 8", "unit": "cubic millimeters"}, {"measurement": "Tumour size (mean volume of the tumour)", "setting": "[2]; [33]", "value": "70 ± 8", "unit": "cubic millimeters"}, {"measurement": "Tumour size (mean volume of the tumour)", "setting": "[2]; [34]", "value": "65 ± 9", "unit": "cubic millimeters"}, {"measurement": "Reduction in brain tumour size", "setting": "brain tumours", "value": "does not cause a reduction in brain tumour sizes; also recorded: does not produce reduction in the size of brain tumours"}]}
